“Also recorded” adds a separate entry of the source. Where two headings read alike, the source gives them in different places. Peptide text beside a SMILES is read from it.
What was measured:
[1] = molecular target: T1, wild type ZZ122-175 (p62) (Homo sapiens, UniProt Q13501); experiment: Isothermal titration calorimetry, wild type ZZ (Fig. 3b); settings: ITC, wild type ZZ122-175, 25 °C; read-out: binding affinity (KD)
T1 construct: GST-fused p62 (122–175) wild type and mutants (N132Q and N132D) were expressed in E. coli; GST (N); made in house; host or cells: E. coli BL21 (DE3) RIL

[2] = molecular target: T2, GST-ZZ122-175 domain (p62) (Homo sapiens, UniProt Q13501); experiment: Isothermal titration calorimetry, GST-ZZ122-175 (Fig. 2e); assay type: binding
T2 construct: GST-fused p62 (122–175) wild type and mutants (N132Q and N132D) were expressed in E. coli; made in house; host or cells: E. coli BL21 (DE3) RIL
Protocol: (§1) For isothermal titration calorimetry (ITC), GST-fused p62 (122–175) wild type and mutants (N132Q and N132D) were expressed in E. coli BL21 (DE3) RIL competent cells in Luria–Bertani media with 0.1 mM Isopropyl-β-D-thio-galactoside (IPTG) at 18 °C. Cells were collected and sonicated in a B buffer (50 mM Tris–HCl pH 7.5, 200 mM NaCl) containing 3 mM β-mercaptoethanol (β-ME). Cell lysates were centrifuged at 18,000 × g for 1 h to remove cell debris, and this supernatant was loaded onto Glutathione Sepharose™ 4 Fast Flow resin and washed with B buffer. GST-fused proteins were eluted with 20 mM glutathione in an elution buffer (100 mM Tris–HCl pH 7.5, 200 mM NaCl, and 3 mM β-ME). The eluted samples were dialyzed in a dialysis buffer (50 mM Tris–HCl pH 7.5, 50 mM NaCl, and 3 mM β-ME) with or without TEV protease. These samples were loaded onto anion exchange column (HiTrap Q HP, GE Healthcare) and unbounded samples were collected and loaded onto size exclusion chromatography (HiLoad ™ 25/600 Superdex™ 75 pg column, GE healthcare) with the B buffer containing 0.2 mM Tris(2-carboxyethyl)phosphine (TCEP).
(§2) Purified proteins were concentrated to 0.05 mM. 4-mer peptides as injectant were resolved in B buffer to a final concentration of 1 mM. ITC measurement was performed at 25 °C on a Microcal Auto-ITC200.

[3] = molecular target: T3, N132D mutant ZZ122-175 (p62) (Homo sapiens, UniProt Q13501, N132D); experiment: Isothermal titration calorimetry, N132D ZZ; settings: ITC, N132D ZZ122-175, 25 °C; read-out: binding affinity (KD)
T3 construct: GST-fused p62 (122–175) wild type and mutants (N132Q and N132D) were expressed in E. coli; GST (N); made in house; host or cells: E. coli BL21 (DE3) RIL

[4] = molecular target: T4, N132Q mutant ZZ122-175 (p62) (Homo sapiens, UniProt Q13501, N132Q); experiment: biochemical; assay type: binding
T4 construct: GST-fused p62 (122–175) wild type and mutants (N132Q and N132D) were expressed in E. coli; GST (N); made in house; host or cells: E. coli BL21 (DE3) RIL

[5] = test system: R-catcher; experiment: Small-scale R-catcher pulldown of known arginylated proteins; assay type: binding, human; settings: for pulldown by R-catcher, overexpressed substrates: HEK293 cells, R-catcher on tactin beads, immunoblot
Protocol: (§3) For small-scale R-catcher pull-down assays, 300 µg of purified R-catcher was conjugated with 120 µl of Strep-Tactin sepharose resin by incubating overnight at 4 °C. To test R-catcher’s ability to capture known arginylated proteins, such as R-BiP, R-PDI, R-nsP4 and R-RGS4, plasmids encoding Ub-X-(BiP, PDI and nsP4) or MX-RGS4 (X = Arg or Val) were transiently transfected into HEK293 cells. After 24 h, cells were treated with 10 µM MG132 and 100 nM thapsigargin for another 24 h. Cells were harvested and lysed in hypotonic buffer and 300 µg total protein was incubate with 25 µl R-catcher-sepharose resin in binding buffer (20 mM HEPES pH 7.9, 0.05% Tween 20, 10% glycerol, 0.2 M KCl, protease inhibitor and phosphatase inhibitor) for 3 h with gentle rotation at 4 °C. After three washes with binding buffer, bound proteins were dissociated with 2 × SDS sample buffer and boiling at 100 °C and subjected to immunoblotting using anti-myc or flag antibodies.

[6] = test system: HeLa cell extracts stimulated with MG132 plus TG; experiment: Large-scale R-catcher pulldown coupled to silver staining and LC-MS/MS; set-up: species or system human; settings: for presence in R-catcher working list: LC-MS/MS working list
Protocol: For large-scale R-catcher pulldown assays, HeLa cells were treated with 5 µM MG132 and 100 nM thapsigargin for 24 h. Cells were lysed in hypotonic buffer and 10 mg total was incubated with 750 µl R-catcher-sepharose beads for 3 h at 4 °C after pre-clearing with D129A mutant R-catcher-sepharose beads for 3 h at 4 °C. After three washes with binding buffer, bound proteins were eluted with binding buffer containing 20 mM D-biotin. To remove R-catcher, the eluent was dialyzed using 20 kDa cut-off dialysis membrane in binding buffer containing 3.5 M MgCl2 overnight followed by another overnight dialysis in distilled-deionized water. The dialyzed eluent was lyophilized overnight and dried powder was dissolved in 100 µl LC/MS solubilizer for silver staining and mass spectrometry analysis.
Protein samples solubilized in Invitrosol LC/MS solubilizer (Invitrogen) as following by manufacturer protocol. For removal of incompatible buffer components, protein samples filtrate with 10 K MW ultrafilter for complete digestion. For preparing trypsinization of samples, the retentates were dissolved in 50 mM of ammonium bicarbonate (pH 8.0) untill it reach 1 μg/μL of final concentration. The samples treated with 10 mM DTT at 60 °C for 45 min. Following 20 mM IAA addition, the final mixture incubated in dark for 45 min at 25 °C. 1:50 ratio of Trypsin was added on mixture. The mixture incubated overnight at 37 °C. Final digested samples dried with speed-vacuum. Samples re-dissolved in 20 μL of water containing 0.1% formic acid for LC–MS/MS analysis.
Peptides were analyzed using a LC–MS/MS system consisting of an Easy nLC 1000 (Thermo Fisher scientific) and an Orbitrap Fusion Lumos mass spectrometer (Thermo Fisher Scientific) equipped with a nano-electrospray source (EASY-Spray Sources, Thermo Fisher Scientific). Peptides were trapped 75 μm × 2 cm C18 pre-column (nanoViper, Acclaim PepMap100, Thermo Fisher Scientific) before being separated on an analytical C18 column (75 μm × 50 cm PepMap RSLC, Thermo Fisher Scientific) at a flow rate of 300 nL/min. The mobile phases A and B were composed of 0 and 100% acetonitrile containing 0.1% formic acid, respectively. The LC gradient began with 5% B and was ramped to 8% B for 1 min, 10% B for 16 min, to 40% B for 79 min, to 80% B for 1 min, and remained at 80% B over 8 min. Finally, it was ramped to 5% B for another 5 min. The column was re-equilibrated with 2% B for 10 min before the next run. The voltage applied to produce an electrospray was 1900 V. During the chromatographic separation, the Orbitrap Fusion Lumos was operated in data-dependent mode, automatically switching between MS1 and MS2. The MS data were acquired using the following parameters: Full-scan MS1 spectra (400–1600 m/z) were acquired in the Orbitrap for a maximum ion injection time of 100 ms at a resolution of 120,000 and an automatic gain control (AGC) target value of 4.0e5. MS2 spectra were acquired in the Orbitrap mass analyzer at resolution of 30,000 with high-energy collision dissociation (HCD) of 27% normalized collision energy and AGC target value of 5.0e4 with maximum ion injection time of 54 ms. Previously fragmented ions were excluded for 30 s.
MS/MS spectra were analyzed using the following software analysis protocols with the Uniprot human DB (2019). The reversed sequences of all proteins were appended into the database for calculation of false discovery rate (FDR). ProLucid was used to identify the peptides, a precursor mass error of 5 ppm, and a fragment ion mass error of 200 ppm. Trypsin was selected as the enzyme, with one potential missed cleavage. Carbamidomethylation at cystein was chosen as static modifications. Oxidation at methionine was chosen as variable modification. The output data files were filtered and sorted to compose the protein list using the DTASelect (The Scripps Research Institute, USA) with two and more peptides assignments for a protein identification and a false positive rate less than 0.01. […]

[7] = test system: R-catcher; experiment: R-catcher pulldown of putative arginylated ER proteins, HeLa; assay type: binding, human; settings: 5 µM MG132 plus 100 nM TG, RA competition, Fig. 6a
Protocol: as §3
Plasmids encoding the proteins were transiently transfected to HeLa cells for 24 h and stimulated with 5 µM MG132 plus 100 nM TG for another 24 h. Cell lysates were incubated with R-catcher immobilized on tactin beads for 3 h. After wash, bound proteins were eluted with 2 × SDS sample buffer followed by boiling at 100 °C for 10 min and visualized by western blot analysis. b R-catcher pulldown assays to validate ATE1-dependent arginylation of […]1, PRDX4, FBLN1 and CLUS. Plasmids encoding […]1, PRDX4, FBLN1 and CLUS were transiently transfected into + / + and ATE1^−/− MEFs for 24 h and stimulated with 5 µM MG132 plus 100 nM TG for another 9 h. Cell lysates were subjected to R-catcher pulldown, and bound proteins were detected by western blot analysis. c R-catcher pull-down assays to evaluate if the arginylation of FBNL1, SERPINH1, CLUS and PRDX4 is induced in response to MG132 plus thapsigargin. d X-peptide pulldown assays to confirm no interaction of R-catcher with Nt-Ala19 of SERPINH1 peptides and Nt-Trp38 of PRDX4 peptides. X-peptides where X is A19 (SignalP predicted P1’ site), E20 (next possible P1’ site predicted by PrediSi) or R19 (Arginylated form of Glu) for SERPINH1 and W38 (SignalP predicted P1’ site), E39 (next possible P1’ site predicted by PrediSi) or R38 (Arginylated form) for PRDX4. Biotinylated X-peptides immobilized on streptavidin agarose beads were incubated with affinity-purified GST-ZZ ([…]). Bound GST-ZZ (N132D) was detected by immunoblotting. e Identification of arginylated sites employing mutational analysis. Predicted P1’ sites of SERPINH1, PRDX4, CLUS and FBLN1 were substituted to Gly, and the inhibitory effect of the mutation on binding with R-catcher was examined by performing R-catcher pulldown assays

[8] = test system: ZZ wild type, ZZ (N132D) and ZZ (N132Q); experiment: Isothermal titration calorimetry, any ZZ domain (wild type, N132D, N132Q); assay type: binding, human; settings: ITC, 25 °C
Protocol: as §1, §2

T3 sequence (Q13501 122-175 N132D): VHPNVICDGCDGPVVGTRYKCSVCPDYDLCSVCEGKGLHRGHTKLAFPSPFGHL
T1 sequence (Q13501 122-175): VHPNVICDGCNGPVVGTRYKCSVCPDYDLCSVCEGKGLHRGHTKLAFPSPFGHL
T2 sequence (Q13501 122-175): as above
T4 sequence (Q13501 122-175 N132Q): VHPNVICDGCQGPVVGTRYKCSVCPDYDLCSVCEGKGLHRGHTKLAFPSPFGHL

## CC[C@H](C)[C@H](NC(=O)[C@@H](N)CCCNC(=N)N)C(=O)N[C@@H](Cc1ccccc1)C(=O)N[C@@H](CO)C(=O)O [RIFS] (H-RIFS-OH)
[1]
  Kd: 6.9 µM
[2]
  Kd: 4.39 ± 0.449 µM
[3]
  Kd: 2.85 µM
[4]
  Kd: 21.4 ± 9.51 µM

## CC[C@H](C)[C@H](NC(=O)[C@@H](N)Cc1ccc(O)cc1)C(=O)N[C@@H](Cc1ccccc1)C(=O)N[C@@H](CO)C(=O)O [YIFS] (H-YIFS-OH)
[1]
  Kd: 20.7 µM
[2]; ITC, (GST-)ZZ122-175 wild type, 25 °C, read-out: KD
  Kd: 16.1 µM
[3]
  Kd: 107 µM

## BiP: ER chaperone BiP, arginylated (2nd Glu)
[5]; Fig. 4d
  pulldown by R-catcher, overexpressed substrates: could pulldown
[5]; HeLa, MG132 plus TG, Fig. 4e
  pulldown by R-catcher, endogenous: could pulldown
[6]
  presence in R-catcher working list: among the known arginylated proteins

## ENPL: endoplasmin
[7]
  binding with R-catcher, Nt-Arg dependence: no significant binding affinity for R-catcher

## FIFS [peptide]
[8]
  affinity for ZZ domains: no affinity

## FKBP10: FK506-binding protein 10
[7]
  binding with R-catcher, Nt-Arg dependence: Nt-Arg-dependent binding with R-catcher; also recorded: unusually high binding affinity for R-catcher

## IIFS [peptide]
[8]
  affinity for ZZ domains: no affinity

## LIFS [peptide]
[8]
  affinity for ZZ domains: no affinity

## PDI: protein disulfide isomerase, arginylated (2nd Asp)
[5]; Fig. 4d, discussion
  binding affinity for R-catcher: low binding affinity
[5]; Fig. 4d
  pulldown by R-catcher, overexpressed substrates: could pulldown
[6]
  presence in R-catcher working list: not detected in our list

## R-PDI: arginylated PDI
[5]; preliminary result, N-termini enhancing methods
  R-PDI binding to R-catcher, preliminary: detected R-PDI binding to R-catcher

## R-catcher: ZZ122-175^N132D tagged with twin strepII-His6 at the N-terminus, approximately 9 kDa protein
[6]; HeLa, MG132 + TG
  number of known and putative arginylated proteins captured (final working list): 59 proteins
[6]; no dipeptide, LC-MS/MS, Fig. 5c
  number of proteins in WT list: 83 proteins
[6]; with AR dipeptide competition
  number of proteins in AR list: 163 proteins
[6]; with RA dipeptide competition
  number of proteins in RA list: 42 proteins

## TIFS [4-mer peptide]
[8]
  affinity for ZZ domains: no affinity
